Data taken from patent EP4559922A1, “ANTIHISTAMINE COMPOUND, PREPARATION METHOD THEREFOR AND USE THEREOF” (HC Synthetic Pharmaceutical Co., Ltd., priority 2022, dated 2024).
Values after ≈ are worked out from the molar mass of the structure shown.

Columns and labels:
[1] = Solubility of the compounds in water, methanol and isopropanol; format: physicochemical; details: for Solubility in Water: solvent water; for Solubility in Isopropanol: solvent isopropanol; for Solubility in Methanol: solvent methanol
Method: The solubility in water, methanol, and isopropanol of the compounds of the present disclosure and the comparative compounds were measured separately.

[2] = system: histamine-induced asthma in guinea pigs; test: Antiasthmatic effect on histamine-induced asthma in guinea pigs (latency period); format: in vivo; details: X±s, n = 5; for Post-administration latency period: 1 mg/kg oral gavage, sixty minutes after administration, histamine hydrochloride spray, capped at 8 minutes; for Pre-administration latency period: baseline before administration, histamine hydrochloride 0.8 mg/mL sprayed 40 seconds
Method: The guinea pigs were placed in a polymethyl methacrylate bell jar and a histamine hydrochloride solution was sprayed ultrasonically (0.8 mg/mL) for 40 seconds. The time point at which the guinea pigs developed asthma was recorded. The time of convulsion and fall was taken as the latency period. Guinea pigs with a latency period exceeding 180 seconds were not selected. […] The guinea pigs were administered by oral gavage at a dose of 2 mL/kg·bw. Sixty minutes after the administration, the guinea pigs were placed in bell jars, and histamine hydrochloride solution was sprayed under the same conditions as in the previous selection. The latency period for the onset of asthma was recorded. […] The results were processed statistically.

[3] = system: isolated ileal smooth muscle of guinea pigs; test: Effect on muscle tone of isolated ileal smooth muscle of guinea pigs (no histamine added); details: X±s; for Smooth muscle tone After administration: 5 minutes after adding drug; for Smooth muscle tone After administration / Smooth muscle tone Before administration: n = 8; for Antispasmodic percentage: relative to tone before adding compound, n = 8, 5 min; for Smooth muscle tone Before administration: baseline
Method: (§1) The guinea pig was knocked unconscious with a wooden stick, and the abdomen was immediately dissected to separate the ileum about 15 cm in length. The contents of the intestinal segment were flushed with Tyrode's solution and placed in Tyrode's solution at a constant temperature of 37°C for later use, and oxygen was supplied simultaneously. The experimental intestinal tract (1 cm in length) was cut and placed into 20 ml of Tyrode's solution at a constant temperature of 37°C with a continuous oxygen supply. One end of the intestine was fixed on the ventilation hook and the other end was connected to the muscle tone transducer and led to the computer interface. The muscle tone value of the ileal smooth muscle was recorded with a BL system. The experiment was carried out after the intestinal segment contraction became stable.
After the ileum contraction curve stabilized, the tone values before adding the drug were recorded, then the drug or DMSO was added, and the average tone value of the ileum contraction curve at that point was recorded 5 minutes later. The operation was repeated 8 times. The antispasmodic percentage was calculated according to the following formula. Antispasmodic percentage =; (Tone value before adding subject compound−Tone value after adding subject compound)/(Tone value before adding subject compound); × 100% [formula]

[4] = Antagonism of histamine-induced contraction of isolated ileal smooth muscle of guinea pigs; details: relative to tone after adding histamine; x±s, n = 8; 3 min
Method: as §1
(§2) After the ileal peristalsis curve stabilized, the tone values before adding the compound were recorded, and then 0.05 mL of histamine was added. […] The operation was repeated 8 times. The antispasmodic percentage was calculated using the following equation. Antispasmodic percentage =; (Tone value after adding histamine−Tone value after adding subject compound)/(Tone value after adding histamine) × 100% [formula]

histamine = test: as above; details: x±s, n = 8; for Smooth muscle tone After administration: 3 minutes after adding 0.05 mL compound following histamine; for Smooth muscle tone After addition of histamine: after 0.05 mL histamine, before compound; for Smooth muscle tone Before administration: baseline before histamine
Method: as §1, §2

[5] = Accelerated stability test; format: physicochemical; details: 40°C ± 2°C, relative humidity 75% ± 5%

Row | SMILES | Solubility in Water [1] | Post-administration latency period [2] [s] | Smooth muscle tone After administration [3] [g] | Antispasmodic percentage ([3]; 5 min) [%] | Antispasmodic percentage [4] [%] | Smooth muscle tone After administration (histamine) [g] | Pre-administration latency period [2] [s] | Smooth muscle tone Before administration [3] [g] | Smooth muscle tone After addition of histamine (histamine) [g] | Smooth muscle tone Before administration (histamine) [g] | Solubility in Isopropanol [1] [mg/mL] | Solubility in Methanol [1] [mg/mL] | Antispasmodic percentage [3] [%] | other results
1 | O=C1Cc2ccccc2C(=C2CCN(CCCOCOP(=O)(O)O)CC2)c2ccsc21 [Compound III-7] | 20 mg/mL (≈ 43.2 mM) | 377.23 ± 50.23 | 1.20 ± 0.25 | 30.23±19.04 | 66.28±16.16 | 1.16 ± 0.22 | – | – | – | – | – | – | – | Content ([5]; Month 0): 99.7%; Description ([5]; Month 0): White powder; Related substances ([5]; Month 0): 0.03%; Description ([5]; Month 1): White powder; Related substances ([5]; Month 1): 0.05%; Description ([5]; Month 2): White powder; Related substances ([5]; Month 2): 0.10%; Description ([5]; Month 3): White powder; Related substances ([5]; Month 3): 0.15%; Description ([5]; Month 6): White powder; Related substances ([5]; Month 6): 0.34%; remaining at 730 h ([5]; storage 75% relative humidity, Month 1, read-out: Content): 99.7%; remaining at 1460 h ([5]; storage 75% relative humidity, Month 2, read-out: Content): 99.6%; remaining at 2190 h ([5]; storage 75% relative humidity, Month 3, read-out: Content): 99.5%; remaining at 4380 h ([5]; storage 75% relative humidity, Month 6, read-out: Content): 99.2%
2 | O=C1Cc2ccccc2C(=C2CCN(CCOP(=O)(O)O)CC2)c2ccsc21 [Compound III-2] | 20 mg/mL (≈ 47.7 mM) | 377.22 ± 50.87 | 1.21 ± 0.24 | 28.82±16.05 | 65.39±17.28 | 1.18 ± 0.21 | 99.48 ± 50.88 | 1.70 ± 0.21 | 3.41 ± 0.89 | 1.75 ± 0.18 | – | – | – | –
3 | OCCCCCN1CCC(=C2c3ccc(Cl)cc3CCc3cccnc32)CC1 [Hydroxypentyl desloratadine, reference compound] | Practically insoluble | 284.29 ± 57.34 | 1.28 ± 0.24 | – | 57.48±12.05 | 1.44 ± 0.51 | – | – | – | – | 29 (≈ 73.1 mM) | 19 (≈ 47.9 mM) | 25.14±12.21 | –
4 | O=C1Cc2ccccc2C(=C2CCN(CCCCCOCOP(=O)(O)O)CC2)c2ccsc21 [Compound III-9] | 20 mg/mL (≈ 40.7 mM) | 267.95 ± 51.16 | 1.12 ± 0.29 | 34.50±19.89 | 67.25±17.74 | 1.17 ± 0.24 | – | – | – | – | – | – | – | –
5 | O=C1Cc2ccccc2C(=C2CCN(CCCCOCOP(=O)(O)O)CC2)c2ccsc21 [Compound III-8] | 20 mg/mL (≈ 41.9 mM) | 376.24 ± 50.42 | 1.16 ± 0.21 | 31.76±18.69 | 66.47±18.83 | 1.12 ± 0.21 | 99.49 ± 51.11 | 1.70 ± 0.29 | 3.42 ± 0.99 | 1.78 ± 0.20 | – | – | – | –
6 | Cc1cncc(CN2CCC(=C3c4ccccc4CC(=O)c4sccc43)CC2)c1 [Rupatifen, reference compound] | Practically insoluble | 253.23 ± 52.29 | 1.31 ± 0.25 | – | 55.42±11.38 | 1.52 ± 0.46 | – | – | – | – | – | – | 23.84±11.10 | –
7 | OCCCCN1CCC(=C2c3ccc(Cl)cc3CCc3cccnc32)CC1 [Hydroxybutyl desloratadine, reference compound] | Practically insoluble | 286.23 ± 55.29 | 1.31 ± 0.28 | – | 57.77±13.69 | 1.45 ± 0.47 | – | – | – | – | 28 (≈ 73.1 mM) | 22 (≈ 57.5 mM) | 24.27±12.31 | –
8 | O=C1Cc2ccccc2C(=C2CCN(COP(=O)(O)O)CC2)c2ccsc21 [Compound III-1] | 20 mg/mL (≈ 49.3 mM) | 376.25 ± 51.77 | 1.18 ± 0.25 | 30.59±18.11 | 66.76±16.11 | 1.14 ± 0.23 | 98.57 ± 49.10 | 1.70 ± 0.17 | 3.43 ± 1.06 | 1.79 ± 0.21 | – | – | – | –
9 | OCCCCCCN1CCC(=C2c3ccc(Cl)cc3CCc3cccnc32)CC1 [Hydroxyhexyl desloratadine, reference compound] | Practically insoluble | 281.18 ± 53.76 | 1.30 ± 0.30 | – | 58.06±13.39 | 1.43 ± 0.47 | – | – | – | – | 32 (≈ 77.9 mM) | 15 (≈ 36.5 mM) | 24.42±11.13 | –
10 | O=C1Cc2ccccc2C(=C2CCN(CCCCCOP(=O)(O)O)CC2)c2ccsc21 [Compound III-5] | 20 mg/mL (≈ 43.3 mM) | 375.52 ± 49.26 | 1.13 ± 0.31 | 33.53±19.21 | 65.01±18.17 | 1.20 ± 0.21 | 102.32 ± 54.23 | 1.70 ± 0.20 | 3.43 ± 0.93 | 1.73 ± 0.21 | – | – | – | –
11 | OCCCN1CCC(=C2c3ccc(Cl)cc3CCc3cccnc32)CC1 [Hydroxypropyl desloratadine, reference compound] | Practically insoluble | 285.28 ± 56.32 | 1.30 ± 0.24 | – | 57.05±12.07 | 1.46 ± 0.49 | – | – | – | – | 26 (≈ 70.5 mM) | 24 (≈ 65.1 mM) | 23.97±11.12 | –
12 | OCCN1CCC(=C2c3ccc(Cl)cc3CCc3cccnc32)CC1 [Hydroxyethyl desloratadine, reference compound] | Practically insoluble | 281.12 ± 54.82 | 1.33 ± 0.27 | – | 58.53±10.79 | 1.41 ± 0.43 | – | – | – | – | 21 (≈ 59.2 mM) | 27 (≈ 76.1 mM) | 21.76±10.04 | –
13 | O=C1Cc2ccccc2C(=C2CCN(CCCCOP(=O)(O)O)CC2)c2ccsc21 [Compound III-4] | 20 mg/mL (≈ 44.7 mM) | 369.49 ± 51.06 | 1.16 ± 0.23 | 32.55±18.33 | 64.24±17.11 | 1.23 ± 0.24 | 99.07 ± 50.25 | 1.72 ± 0.16 | 3.44 ± 0.96 | 1.78 ± 0.17 | – | – | – | –
